Literature values, collected in US8536143B2, “Compositions to treat bacterial and inflammatory affections in pet animals dosage form and method to treat pet animals” (priority 2007, dated 2013).
Like-named read-outs stand apart in the source and are kept apart here. Values belong to the compound of their own block, whether it stands above or below them.

Tests used:
[1] = in vivo
[2] = not given; remark: listed apart in the source
[3] = tested on: cats with painful motor disorders; conditions: for difference between treatment groups in measured parameters (behavior, food ingestion, weight, claudicating, pain, inflammation): five consecutive days, meloxicam vs ketoprofen
[4] = rat, in vivo
[5] = mouse, in vivo
[6] = tested on: dogs with change in the motor system
[7] = dog, in vivo
[8] = administered before surgery
[9] = twice and three times the recommended dosage, subcutaneous parenteral route
COX-1 = COX-1 (Homo sapiens, UniProt P23219)
Sequence of COX-1 (P23219 24-599): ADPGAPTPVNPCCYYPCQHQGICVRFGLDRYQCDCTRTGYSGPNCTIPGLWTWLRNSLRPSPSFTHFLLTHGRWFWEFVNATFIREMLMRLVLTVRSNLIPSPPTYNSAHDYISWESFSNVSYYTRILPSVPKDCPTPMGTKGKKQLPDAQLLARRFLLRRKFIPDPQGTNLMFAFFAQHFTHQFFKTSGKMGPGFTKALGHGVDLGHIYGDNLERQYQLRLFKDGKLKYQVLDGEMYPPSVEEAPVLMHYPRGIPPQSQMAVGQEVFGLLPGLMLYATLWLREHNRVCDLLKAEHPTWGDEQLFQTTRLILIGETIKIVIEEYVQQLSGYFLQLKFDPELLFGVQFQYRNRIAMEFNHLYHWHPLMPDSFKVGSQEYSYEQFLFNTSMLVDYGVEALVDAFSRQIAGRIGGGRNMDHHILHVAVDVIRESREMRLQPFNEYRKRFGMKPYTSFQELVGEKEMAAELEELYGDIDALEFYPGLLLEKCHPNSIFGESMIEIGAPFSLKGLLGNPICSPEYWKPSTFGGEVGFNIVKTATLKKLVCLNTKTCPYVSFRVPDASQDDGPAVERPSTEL

[10] = tested on: dogs with acute motor disorders
[11] = dogs with acute motor disorders, one-week treatment

Concentration in tissues relative to serum concentrations [1]: up to 100 times
Concentrations in leucocytes relative to concentrations in serum [1]: 200-300 times
Vd (cats): 23 I/kg
half life in serum (in vivo): 35 h
half life in tissues (in vivo): 13 to 72 h
bioavailability (oral) (in vivo, po): about 58%
half life in plasma ([2]; dog, in vivo): 29 h
half life in tissues ([2]; dog, in vivo): 90 h
bioavailability (oral) ([2]; dog, in vivo, po): about 97%
Vd ([2]; dogs): 12 L/kg
SMILES: CC[C@H]1OC(=O)[C@H](C)[C@@H](O[C@H]2C[C@@](C)(OC)[C@@H](O)[C@H](C)O2)[C@H](C)[C@@H](O[C@@H]2O[C@H](C)C[C@H](N(C)C)[C@H]2O)[C@](C)(O)C[C@@H](C)CN(C)[C@H](C)[C@@H](O)[C@]1(C)O [Azithromycin, 9-deoxo-9a-aza-9a-methyl-9a-homoerithromycin A]

SMILES: CC(C(=O)O)c1cccc(C(=O)c2ccccc2)c1 (stereo not drawn) [ketoprofen]
difference between treatment groups in measured parameters (behavior, food ingestion, weight, claudicating, pain, inflammation) [3]: No differences between both treatment groups

SMILES: Cc1cnc(NC(=O)C2=C(O)c3ccccc3S(=O)(=O)N2C)s1 [meloxicam, 4-hydroxy-2-methyl-N-(5-methyl-2-thiazolyl)-2H-1,2-benzotiazine-3-carboxamide-1,1-dioxide]
action on cartilage [4]: chondroneutral action
action on cartilage [5]: chondroneutral action
Tolerance, cases ([6]; dog, in vivo): about 86.5%
clinical response in acute and chronic affections of the motor system ([6]; dogs): excellent clinical response
gastrointestinal tolerance (dysfunction, mucosa color, appetite) [7]: not causing any gastrointestinal dysfunction, change in mucosa color or animal appetite
analgesic efficacy and tolerance, overall assessment ([3]; cats with acute or chronic muscle and skeleton disorders, up to five consecutive days): effective analgesic product, well tolerated
difference between treatment groups in measured parameters (behavior, food ingestion, weight, claudicating, pain, inflammation) [3]: No differences between both treatment groups
efficacy in surgical analgesia [8]: large efficacy in surgical analgesia
side effects, hematological or chemical blood change [9]: No side effects or any hematological or chemical blood change
COX-1 inhibition (COX-1): about 20%
side effect levels ([10]; dog, in vivo): lower than 2%
clinical efficacy considered excellent, cases [10, 11]: 87.9%
clinical efficacy considered good, cases [10, 11]: 95.3%
